Data as given in US8809280B2, “Therapeutic peptides” (Lytix Biopharma AS, priority 2009, dated 2014).
≈ marks a conversion by molar mass, not a printed value. Where “and” joins values, the source holds several entries; their conditions need not be identical. Equal values may be shown once. Starred links: 1 amine or outer side, 2 acyl side, 3 side chain; linkers in the order of their positions; H or OH if unused. Non-standard residues stand in square brackets, D forms with d. Residues, ends and D or L forms follow the SMILES beside them. X1 = Cc1cc(C)cc(CC(CN[*:1])(Cc2cc(C)cc(C)c2)C(=O)[*:2])c1; X4 = O=C(C(CN[*:1])(Cc1ccc(F)cc1)Cc1ccc(F)cc1)[*:2]; X2 = O=C(C(CCCc1ccccc1)(CCCc1ccccc1)CN[*:1])[*:2]; X5 = O=C(C(CCC1CCCCC1)(CCC1CCCCC1)CN[*:1])[*:2]; X3 = O=C(C(CN[*:1])(Cc1ccccc1)Cc1ccccc1)[*:2]

Columns and labels:
Type in all cases: cell-based
[1] = system: Staphylococcus aureus (ATTC 25923); assay: microbe, parasite or virus in culture; conditions: Staphylococcus aureus, Example 2; values separated by / are repeat tests; read-out: Antimicrobial potency (MIC) S. aureus
Protocol: (§1) The antimicrobial testing was conducted by TosLab A/S (Tromsø, Norway). Each compound was diluted to 1 mg/ml in water and tested in duplicates at 200, 100, 50, 35, 15, 10, 5, 2.5, 1, 0.5 μg/ml except 4n which was tested at 50, 35, 15, 10, 5, 2.5, 1, 0.5 μg/ml due to solubility problems. All tested compounds were di TFA salts.
(§2) The bacterial strains were grown in 2% Bacto Peptone water until exponential growth was achieved. […] A bacterial concentration of 2×10^6 cfu/ml was used. Both negative control (no peptide) and positive control (Gentamicin) was used for all bacterial strains. Growth or no growth was judged by the turbidity of the wells.
Staphylococcus aureus (ATTC 25923)
(§3) Antimicrobial assays: 200 μg/ml
(§4) Suitable methodologies are described in Example 1.
(§5) Each compound was tested in duplicates at 200, 100, 50, 35, 15, 10, 5, 2.5, 1, 0.5 μg/ml. All tested compounds were di-trifluoroacetic acid salts.

[2] = system: methicillin resistant Staphylococcus aureus (ATCC 33591); assay: microbe, parasite or virus in culture; conditions: Staphylococcus aureus, ATCC 33591 / MRSA, Example 2; values separated by / are repeat tests; read-out: Antimicrobial potency (MIC) MRSA
Protocol: as §1, §2
Methicillin resistant Staphylococcus aureus (ATCC 33591)
as §3, §4, §5

[3] = system: methicillin resistant Staphylococcus epidermidis (ATCC 27626); assay: microbe, parasite or virus in culture; conditions: Staphylococcus epidermidis, ATCC 27626 / MRSE, Example 2; values separated by / are repeat tests; read-out: Antimicrobial potency (MIC) MRSE
Protocol: as §1, §2
Methicillin resistant Staphylococcus epidermidis (ATCC 27626)
as §3, §4, §5

[4] = system: Escherichia coli (ATTC 25922); assay: microbe, parasite or virus in culture; conditions: Escherichia coli, Example 2; values separated by / are repeat tests; read-out: Antimicrobial potency (MIC) E. coli
Protocol: as §1, §2
Escherichia coli (ATTC 25922)
as §3, §4, §5

human red blood cells = assay: cells; conditions: Homo sapiens, Erythrocyte; Example 2; highest concentration tested 1000 μg/ml; * low solubility in the test media; read-out: Toxicity RBC (EC50)
Protocol: The hemolytic testing against human erythrocytes was conducted by Lytix Biopharma A/S (Tromso, Norway). Each compound was tested from a concentration of 1 mg/ml and lower, except 4k and 4n which was only tested up to 0.5 mg/ml due to solubility problems. 8 mL of blood was collected from adult healthy male donors. The blood was divided equally and distributed in a commercial available EDTA containing test tube (BD vacutainer, 7.2 mg K2 EDTA) and in a 10 mL reaction vial containing 40 μL of a heparin solution (1000 U/mL in 0.9% sodium chloride). After 30 minutes the hematocrit of the EDTA treated blood was determined. The heparinized blood was centrifuged for 10 minutes at 1500 rpm and the supernatant removed. Subsequently the RBCs were washed with prewarmed PBS three times, and diluted to 10% hematocrit. The compounds dissolved in PBS (concentration 1 μg/mL to 1000 µg/mL) and the erythrocytes were incubated under agitation at 37° C. for one hour. A positive control with an end concentration of 0.1% TRITON X-100 (nonionic surfactant) and a negative control containing pure PBS buffer were included. The samples were centrifuged (4000 rpm) for 5 minutes and the absorption of the supernatant was measured at 405 nm. The values given in Table 1A correspond to 50% hemolysis.
The plasma fraction of heparinized human blood was first removed by centrifugation and three additional washing steps with 37° C. pre-warmed phosphate buffered saline (PBS). Subsequently, the human RBC were diluted to 10% hematocrit and the β^2,2-amino acid derivatives were dissolved in PBS providing concentrations ranging from 1-1000 μg/mL. The diluted RBC were added to the compound solutions to a final erythrocyte concentration of 1% v/v. PBS and TRITON X-100 (non-ionic surfactant), in a final concentration of 0.1% v/v, were included as negative and positive control. After 1 hour agitated incubation at 37° C. the samples were centrifuged at 4000 rpm for 5 min. Release of hemoglobin was determined by measuring the absorbance of the supernatant at 405 nm. Hemolytic activity was calculated as the ratio of treated sample with β^2,2-amino acid derivative and tenside treated sample according to the formula: […]

MRC-5 = assay: Toxicity assay MRC-5; conditions: highest concentration tested 500 μg/ml; for Toxicity MRC-5: Example 2; for IC50: Homo sapiens, MRC5, Example 2
Protocol: Cells for Toxicity Studies Used MRC-5 and human RBC MRC-5 assay: 500 μg/ml

A20 = assay: cells; conditions: for Anti-Cancer Selectivity MRC-5/A20: ratio of MRC-5 to A20 values
Protocol: Cancer Cell Lines A20 or MethA Anticancer assays: 500 μg/ml

In the case of `Cc1ccc(CC(CN)(Cc2ccc(C)cc2)C(=O)NCCN)cc1` [Compound 8, 3-amino-N-(2-aminoethyl)-2,2-bis(4-methylbenzyl)propanamide], the MIC [1] is reported as 200 µg/mL (≈ 589 µM), the MIC [2] is reported as 100 µg/mL (≈ 295 µM) and the MIC [3] is reported as 100 µg/mL (≈ 295 µM). The MIC [4] was > 200 µg/mL, the EC50 (human red blood cells) was > 1000 µg/mL and the “Toxicity MRC-5” value (MRC-5) was 44 µg/mL. For the same compound, the IC50 (MRC-5) was 26 µg/mL (≈ 76.6 µM).
With `COc1cc(CC(CN)(Cc2cc(OC)cc(OC)c2)C(=O)NCCN)cc(OC)c1` [Compound 13, 3-amino-N-(2-aminoethyl)-2,2-bis(3,5-dimethoxy-benzyl)propanamide] the MIC [1] was 200 µg/mL (≈ 463 µM), the MIC [2] was 200 µg/mL (≈ 463 µM) and the MIC [3] was 100 µg/mL (≈ 232 µM). For the same compound, the MIC [4] was > 200 µg/mL, the EC50 (human red blood cells) was > 1000 µg/mL and the “Toxicity MRC-5” value (MRC-5) was 68 µg/mL. For the same compound, the IC50 (MRC-5) was 62.5 µg/mL (≈ 145 µM).
For `NCCCC[C@@H](N)C(=O)N[C@H](CCCCN)C(=O)N[C@H](Cc1c[nH]c2ccccc12)C(=O)NCC(CCC1CCCCC1)(CCC1CCCCC1)C(=O)N[C@@H](Cc1c[nH]c2ccccc12)C(=O)N[C@@H](CCCCN)C(=O)N[C@@H](CCCCN)C(N)=O` [Compound 15, (R)-N-((2R,9S,12S,15S)-9-((1H-indol-3-yl)methyl)-19-amino-12-(4-aminobutyl)-15-carbamoyl-6,6-bis(2-cyclohexylethyl)-1-(1H-indol-3-yl)-3,7,10,13-tetraoxo-4,8,11,14-tetraazanonadecan-2-yl)-6-amino-2-((R)-2,6-diaminohexanamido)hexanamide] (H-[dK][dK][dW][X5]WKK-NH2), the “Anticancer potency (IC50) A20” value (A20) was 15.0 µg/mL, the “Anti-Cancer Selectivity MRC-5/A20” value (A20) was 3.0 and the “Toxicity MRC-5” value (MRC-5) was 45.7 µg/mL.
`NCCCC[C@@H](N)C(=O)N[C@H](CCCCN)C(=O)N[C@H](Cc1c[nH]c2ccccc12)C(=O)NCC(Cc1ccccc1)(Cc1ccccc1)C(=O)N[C@@H](Cc1c[nH]c2ccccc12)C(=O)N[C@@H](CCCCN)C(=O)N[C@@H](CCCCN)C(N)=O` [Compound 16, (R)-N-((2R,9S,12S,15S)-9-((1H-indol-3-yl)methyl)-19-amino-12-(4-aminobutyl)-6,6-dibenzyl-15-carbamoyl-1-(1H-indol-3-yl)-3,7,10,13-tetraoxo-4,8,11,14-tetraazanonadecan-2-yl)-6-amino-2-((R)-2,6-diaminohexanamido)hexanamide] (H-[dK][dK][dW][X3]WKK-NH2) was tested, and the “Anticancer potency (IC50) A20” value (A20) was 263 µg/mL, the “Anti-Cancer Selectivity MRC-5/A20” value (A20) was “(>1.9)” and the “Toxicity MRC-5” value (MRC-5) was >500 µg/mL.
`NCCCC[C@@H](N)C(=O)N[C@H](CCCCN)C(=O)N[C@H](Cc1c[nH]c2ccccc12)C(=O)NCC(CCCc1ccccc1)(CCCc1ccccc1)C(=O)N[C@@H](Cc1c[nH]c2ccccc12)C(=O)N[C@@H](CCCCN)C(=O)N[C@@H](CCCCN)C(N)=O` [Compound 17, (R)-N-((2R,9S,12S,15S)-9-((1H-indol-3-yl)methyl)-19-amino-12-(4-aminobutyl)-15-carbamoyl-1-(1H-indol-3-yl)-3,7,10,13-tetraoxo-6,6-bis(3-phenylpropyl)-4,8,11,14-tetraazanonadecan-2-yl)-6-amino-2-((R)-2,6-diaminohexanamido)hexanamide] (H-[dK][dK][dW][X2]WKK-NH2) was tested, and the “Anti-Cancer Selectivity MRC-5/A20” value (A20) was 9.1 and 5.5 and the “Toxicity MRC-5” value (MRC-5) was 241 µg/mL and 221 µg/mL.
For `NCCCC[C@@H](N)C(=O)N[C@H](CCCCN)C(=O)N[C@H](Cc1c[nH]c2ccccc12)C(=O)NCC(Cc1ccc2ccccc2c1)(Cc1ccc2ccccc2c1)C(=O)N[C@@H](Cc1c[nH]c2ccccc12)C(=O)N[C@@H](CCCCN)C(=O)N[C@@H](CCCCN)C(N)=O` [Compound 18, (R)-N-((2R,9S,12S,15S)-9-((1H-indol-3-yl)methyl)-19-amino-12-(4-aminobutyl)-15-carbamoyl-1-(1H-indol-3-yl)-6,6-bis(naphthalen-2-ylmethyl)-3,7,10,13-tetraoxo-4,8,11,14-tetraazanonadecan-2-yl)-6-amino-2-((R)-2,6-diaminohexanamido)hexanamide], the “Anticancer potency (IC50) A20” value (A20) was 24 µg/mL, the “Anti-Cancer Selectivity MRC-5/A20” value (A20) was 4.3 and the “Toxicity MRC-5” value (MRC-5) was 103 µg/mL.
In the case of `NCCCC[C@@H](N)C(=O)N[C@H](CCCCN)C(=O)N[C@H](Cc1c[nH]c2ccccc12)C(=O)NCC(Cc1ccc(F)cc1)(Cc1ccc(F)cc1)C(=O)N[C@@H](Cc1c[nH]c2ccccc12)C(=O)N[C@@H](CCCCN)C(=O)N[C@@H](CCCCN)C(N)=O` [Compound 19, (R)-N-((2R,9S,12S,15S)-9-((1H-indol-3-yl)methyl)-19-amino-12-(4-aminobutyl)-15-carbamoyl-6,6-bis(4-fluorobenzyl)-1-(1H-indol-3-yl)-3,7,10,13-tetraoxo-4,8,11,14-tetraazanonadecan-2-yl)-6-amino-2-((R)-2,6-diaminohexanamido)hexanamide] (H-[dK][dK][dW][X4]WKK-NH2), the “Anticancer potency (IC50) A20” value (A20) is reported as 197 µg/mL, the “Anti-Cancer Selectivity MRC-5/A20” value (A20) is reported as “(>2.5)” and the “Toxicity MRC-5” value (MRC-5) is reported as >500 µg/mL.
With `NCCCC[C@@H](N)C(=O)N[C@H](CCCCN)C(=O)N[C@H](Cc1c[nH]c2ccccc12)C(=O)NCC(Cc1ccc(C(F)(F)F)cc1)(Cc1ccc(C(F)(F)F)cc1)C(=O)N[C@@H](Cc1c[nH]c2ccccc12)C(=O)N[C@@H](CCCCN)C(=O)N[C@@H](CCCCN)C(N)=O` [Compound 20, (R)-N-((2R,9S,12S,15S)-9-((1H-indol-3-yl)methyl)-19-amino-12-(4-aminobutyl)-15-carbamoyl-1-(1H-indol-3-yl)-3,7,10,13-tetraoxo-6,6-bis(4-(trifluoromethyl)benzyl)-4,8,11,14-tetraazanonadecan-2-yl)-6-amino-2-((R)-2,6-diaminohexanamido)hexanamide] the “Anticancer potency (IC50) A20” value (A20) was 37 µg/mL, the “Anti-Cancer Selectivity MRC-5/A20” value (A20) was 7.0 and the “Toxicity MRC-5” value (MRC-5) was 260 µg/mL.
`CC(C)(C)c1ccc(CC(CNC(=O)[C@@H](Cc2c[nH]c3ccccc23)NC(=O)[C@@H](CCCCN)NC(=O)[C@H](N)CCCCN)(Cc2ccc(C(C)(C)C)cc2)C(=O)N[C@@H](Cc2c[nH]c3ccccc23)C(=O)N[C@@H](CCCCN)C(=O)N[C@@H](CCCCN)C(N)=O)cc1` [Compound 21, (R)-N-((2R,9S,12S,15S)-9-((1H-indol-3-yl)methyl)-19-amino-12-(4-aminobutyl)-6,6-bis(4-tert-butylbenzyl)-15-carbamoyl-1-(1H-indol-3-yl)-3,7,10,13-tetraoxo-4,8,11,14-tetraazanonadecan-2-yl)-6-amino-2-((R)-2,6-diaminohexanamido)hexanamide] was tested, and the “Anti-Cancer Selectivity MRC-5/A20” value (A20) was 2.9 and 3.2 and the “Toxicity MRC-5” value (MRC-5) was 42 µg/mL and 55.2 µg/mL.
With `Cc1cc(C)cc(CC(CNC(=O)[C@@H](Cc2c[nH]c3ccccc23)NC(=O)[C@@H](CCCCN)NC(=O)[C@H](N)CCCCN)(Cc2cc(C)cc(C)c2)C(=O)N[C@@H](Cc2c[nH]c3ccccc23)C(=O)N[C@@H](CCCCN)C(=O)N[C@@H](CCCCN)C(N)=O)c1` [Compound 22, (R)-N-((2R,9S,12S,15S)-9-((1H-indol-3-yl)methyl)-19-amino-12-(4-aminobutyl)-15-carbamoyl-6,6-bis(3,5-dimethylbenzyl)-1-(1H-indol-3-yl)-3,7,10,13-tetraoxo-4,8,11,14-tetraazanonadecan-2-yl)-6-amino-2-((R)-2,6-diaminohexanamido)hexanamide] (H-[dK][dK][dW][X1]WKK-NH2) the “Anti-Cancer Selectivity MRC-5/A20” value (A20) was 7.4 and 5.1 and the “Toxicity MRC-5” value (MRC-5) was 237 µg/mL and 205 µg/mL.
